{
  "source": "patent US6013283A",
  "about": "(priority 1997, dated 2000)",
  "experiment": "Water solubility (dissolution in water)",
  "description": "Stability of this compound was determined by dissolving small amounts in water, pH 7.8 phosphate buffer and methanol.\nThe stability of the product is determined by dissolving in deionized water and pH 7.26 phosphate buffer.",
  "data": [
    {"smiles": "Nc1c2c(nc3ccccc13)CCCC2", "note": "[Tacrine, tacrine]", "values": [
      {"measurement": "WATER SOLUBILITY (in words)", "value": "Insoluble"}
    ]}
  ]
}
